Reference: patent US9561214B2, “Method of treatment using inhibitors of mitosis” (Array BioPharma Inc., priority 2008, dated 2017)

What was measured:
[1] = Determination of MTD in nude mice (HT-29 xenograft study); settings: mouse, in vivo; female nude mice with subcutaneous HT-29 xenografts; dissolved in normal saline
Protocol: Female nude mice were implanted subcutaneously with 5×10^6 HT-29 cells in 100 μL PBS. Ten days later, tumors were measured and mice randomized into groups of three with average tumor volume in each group of approximately 240 mm^3. Compound 4 was dissolved in normal saline immediately before dosing. It was determined that 20 mg/kg was the MTD for Compound 4. Dose volume was 10 mL/kg. Dosing was vehicle alone on day 1; and Compound 4 at 20 mg/kg on day 1; and 20 mg/kg on days 1 and 3. At various time points after dosing (24, 48, 72, 96, 120 and 144 hours), mice were euthanized by CO2 inhalation, and the tumors were harvested and immediately placed in formalin. The vehicle control group samples were collected 24 and 72 hours after dosing. The day 1 group samples were collected 24, 48, 72 and 96 hours after that dose. The day 1 and day 3 group samples were collected 72, 96, 120 and 144 hours after the first dose. Paraffin blocks of tumor tissue were prepared by standard procedures. […] Spindle structures were manually counted in three 40× areas of each sample, using a fluorescent microscope. Apoptosis was quantitated by manual counting of TUNEL positive cells, also in three 40× areas of each sample (TUNEL staining using the In Situ Cell Death Detection Kit, AP from Roche).

[2] = Tumor growth inhibition on different dosing schedules (HT-29), tolerability; format: in vivo; settings: 10 mg/kg IP on days 1, 2, 3, 4 and 5; female nude mice with HT-29 xenografts
Protocol: Female nude mice were implanted subcutaneously with 5×10^6 HT-29 cells in 100 μL PBS. Eleven to fourteen days later, tumors were measured and mice randomized into groups of seven with average tumor volume in each group of approximately 230 mm^3. Compound 4 was dissolved in normal saline immediately prior to dosing, and administered IP at a volume of 10 mL/kg. Dosing was vehicle alone on day 1 and day 2; and Compound 4 at 20 mg/kg on day 1; 20 mg/kg on days 1 and 2; 20 mg/kg on days 1 and 3; 5 mg/kg on days 1, 2 and 3; 10 mg/kg on days 1, 2 and 3; 10 mg/kg on days 1, 2, 3, 4 and 5; 10 mg/kg on days 1 and 2; and 10 mg/kg on days 1 and 3. Animal weights and tumor volumes were measured (using electronic calipers) twice a week. Tumor volume was calculated using the formula: volume=(width^2×length)/2. Dosing at 10 mg/kg on days 1, 2, 3, 4 and 5 was not tolerated (greater than 20% weight loss and/or death in some of the mice).

[3] = Determination of MTD in a Phase 1 study in patients with solid tumors; format: in vivo
Excerpt: A total of 13 patients with various solid tumors and with a median age of 66 years (range 40-79 years old) were enrolled in a human phase 1 clinical trial (see “Phase I Safety and Pharmacokinetic Study of ARRY-520 in Solid Tumors.” http://clinicaltrials.gov/ct2/show/NCT00462358, herein incorporated by reference). The solid tumors treated were breast cancer (2), colorectal cancer (2), non-small cell lung cancer (2), pancreatic cancer (2), bladder cancer, salivary gland cancer (adenoid cystic), esophageal cancer, mesothelioma cancer, and a mixed small cell lung cancer/non-small cell lung cancer. Compound 4 was provided for administration as a lyophilized powder contained in a Type 1 clear glass vial for IV use. The dose levels administered were 1.25 and 1.6 mg/m^2/day of Compound 4 on Days 1 and 2 every two weeks.

Question: With `CON(C)C(=O)N1N=C(c2cc(F)ccc2F)S[C@@]1(CCCN)c1ccccc1` [Compound 4, (S)-2-(3-aminopropyl)-5-(2,5-difluorophenyl)-N-methoxy-N-methyl-2-phenyl-1,3,4-thiadiazole-3(2H)-carboxamide] as the compound, how does the MTD [1] read?
Answer: The MTD was 20 mg/kg.

Question: And the “tolerability of dosing schedule” value [2]?
Answer: Its value is “not tolerated”.

Question: And the “weight loss and/or death in some of the mice” value [2]?
Answer: Its value is “greater than 20%”.

Question: And the MTD ([3]; IV on Days 1 and 2 every two weeks, 13 patients with solid tumors, dose levels 1.25 and 1.6 mg/m^2/day)?
Answer: Its MTD is 1.25 mg/m^2/day.

Question: What about the “MTD, cumulative dose per cycle” value ([3]; IV on Days 1 and 2 every two weeks, patients with solid tumors) of the same compound?
Answer: The value was 2.5 mg/m^2.

Question: What about the DLTs ([3]; human, in vivo, iv) of the same compound?
Answer: Its DLTs is “Grade 3 hyponatremia, anorexia, AST increase and febrile neutropenia”.
